How the values were obtained:
Assay type in all cases: cell-based
OVCAR-8 = test: NCI screen, growth of human tumor cells: Ovarian Cancer OVCAR-8; details: OVCAR-8 (Ovarian Cancer), 10^−4 molar
Method: (§1) In the NCI screening process, each compound was tested and described by a minimum of 60 data points. The test data include, but are not limited to the type of cancer, the molar concentration used in the screen, and the percent growth of the cancer. In some cases, NMR and elemental analysis were used for structural assignment.

LOXIMVI = test: NCI screen, growth of human tumor cells: Melanoma LOXIMVI; details: LOXIMVI (Melanoma), 10^−4 molar
Method: as §1

UO-31 = test: NCI screen, growth of human tumor cells: Renal Cancer UO-31; details: UO-31 (Renal Cancer), 10^−4 molar
Method: as §1

HL-60 (TB) = test: NCI screen, growth of human tumor cells: Leukemia HL-60 (TB); details: HL-60 (TB) (Leukemia), 10^−4 molar
Method: as §1

HOP-92 = test: NCI screen, growth of human tumor cells: Non-Small Cell Lung HOP-92; details: HOP-92 (Non-Small Cell Lung), 10^−4 molar
Method: as §1

UACC-257 = test: NCI screen, growth of human tumor cells: Melanoma UACC-257
Method: as §1

CAKI-1 = test: NCI screen, growth of human tumor cells: Renal Cancer CAKI-1; details: CAKI-1 (Renal Cancer), 10^−4 molar
Method: as §1

MDA-MB-231/ATCC = test: NCI screen, growth of human tumor cells: Breast Cancer MDA-MB-231/ATCC; details: MDA-MB-231/ATCC (Breast Cancer), 10^−4 molar
Method: as §1

SR = test: NCI screen, growth of human tumor cells: Leukemia SR; details: SR (Leukemia), 10^−4 molar
Method: as §1

HCT-15 = test: NCI screen, growth of human tumor cells: Colon Cancer HCT-15
Method: as §1

MCF 7 = test: NCI screen, growth of human tumor cells: Breast Cancer MCF 7; details: MCF 7 (Breast Cancer), 10^−4 molar
Method: as §1

ACHN = test: NCI screen, growth of human tumor cells: Renal Cancer ACHN; details: ACHN (Renal Cancer), 10^−4 molar
Method: as §1

MCF7/ADR-RES = test: NCI screen, growth of human tumor cells: Breast Cancer MCF7/ADR-RES; details: MCF7/ADR-RES (Breast Cancer), 10^−4 molar
Method: as §1

SW620 = test: NCI screen, growth of human tumor cells: Colon Cancer SW620; details: SW620 (Colon Cancer), 10^−4 molar
Method: as §1

OVCAR-3 = test: NCI screen, growth of human tumor cells: Ovarian Cancer OVCAR-3; details: OVCAR-3 (Ovarian Cancer), 10^−4 molar
Method: as §1

SK-MEL-28 = test: NCI screen, growth of human tumor cells: Melanoma SK-MEL-28; details: SK-MEL-28 (Melanoma), 10^−4 molar
Method: as §1

NCI-H23 = test: NCI screen, growth of human tumor cells: Non-Small Cell Lung NCI-H23; details: NCI-H23 (Non-Small Cell Lung), 10^−4 molar
Method: as §1

OVCAR-4 = test: NCI screen, growth of human tumor cells: Ovarian Cancer OVCAR-4; details: OVCAR-4 (Ovarian Cancer), 10^−4 molar
Method: as §1

HS 578T = test: NCI screen, growth of human tumor cells: Breast Cancer HS 578T; details: HS 578T (Breast Cancer), 10^−4 molar
Method: as §1

K562 = test: NCI screen, growth of human tumor cells: Leukemia K562; details: K562 (Leukemia), 10^−4 molar
Method: as §1

SN12C = test: NCI screen, growth of human tumor cells: Renal Cancer SN12C; details: SN12C (Renal Cancer), 10^−4 molar
Method: as §1

DU-145 = test: NCI screen, growth of human tumor cells: Prostate Cancer DU-145; details: DU-145 (Prostate Cancer), 10^−4 molar
Method: as §1

BT-549 = test: NCI screen, growth of human tumor cells: Breast Cancer BT-549; details: BT-549 (Breast Cancer), 10^−4 molar
Method: as §1

HOP-62 = test: NCI screen, growth of human tumor cells: Non-Small Cell Lung HOP-62; details: HOP-62 (Non-Small Cell Lung), 10^−4 molar
Method: as §1

SK-MEL-5 = test: NCI screen, growth of human tumor cells: Melanoma SK-MEL-5; details: SK-MEL-5 (Melanoma), 10^−4 molar
Method: as §1

NCI-H460 = test: NCI screen, growth of human tumor cells: Non-Small Cell Lung NCI-H460; details: NCI-H460 (Non-Small Cell Lung), 10^−4 molar
Method: as §1

M14 = test: NCI screen, growth of human tumor cells: Melanoma M14; details: M14 (Melanoma), 10^−4 molar
Method: as §1

human cancer cells = test: NCI screen summary over the cancers tested (negative growth of human cancer cells); details: 10^−4 M conc.; cancers with negative growth / cancers tested
Method: as §1
The derivatives in the tables are grouped using the same category as in the tables 1-6.

U-251 = test: NCI screen, growth of human tumor cells: CNS Cancer U-251
Method: as §1

MDA-MB-435 = test: NCI screen, growth of human tumor cells: Breast Cancer MDA-MB-435; details: MDA-MB-435, 10^−4 molar
Method: as §1

UACC-62 = test: NCI screen, growth of human tumor cells: Melanoma UACC-62
Method: as §1

RPMI-8226 = test: NCI screen, growth of human tumor cells: Leukemia RPMI-8226; details: RPMI-8226 (Leukemia), 10^−4 molar
Method: as §1

SF-539 = test: NCI screen, growth of human tumor cells: CNS Cancer SF-539; details: SF-539 (CNS Cancer), 10^−4 molar
Method: as §1

SF-268 = test: NCI screen, growth of human tumor cells: CNS Cancer SF-268; details: SF-268 (CNS Cancer), 10^−4 molar
Method: as §1

HCT-116 = test: NCI screen, growth of human tumor cells: Colon Cancer HCT-116; details: HCT-116, 10^−4 molar
Method: as §1

PC-3 = test: NCI screen, growth of human tumor cells: Prostate Cancer PC-3; details: PC-3 (Prostate Cancer), 10^−4 molar
Method: as §1

SF-295 = test: NCI screen, growth of human tumor cells: CNS Cancer SF-295; details: SF-295 (CNS Cancer), 10^−4 molar
Method: as §1

RXF-393 = test: NCI screen, growth of human tumor cells: Renal Cancer RXF-393; details: RXF-393 (Renal Cancer), 10^−4 molar
Method: as §1

CCRF-CEM = test: NCI screen, growth of human tumor cells: Leukemia CCRF-CEM; details: CCRF-CEM (Leukemia), 10^−4 molar
Method: as §1

OVCAR-5 = test: NCI screen, growth of human tumor cells: Ovarian Cancer OVCAR-5; details: OVCAR-5 (Ovarian Cancer), 10^−4 molar
Method: as §1

KM12 = test: NCI screen, growth of human tumor cells: Colon Cancer KM12; details: KM12 (Colon Cancer), 10^−4 molar
Method: as §1

786-0 = test: NCI screen, growth of human tumor cells: Renal Cancer 786-0; details: 786-0 (Renal Cancer), 10^−4 molar
Method: as §1

IGROVI = test: NCI screen, growth of human tumor cells: Ovarian Cancer IGROVI; details: IGROVI (Ovarian Cancer), 10^−4 molar
Method: as §1

HT29 = test: NCI screen, growth of human tumor cells: Colon Cancer HT29; details: HT29 (Colon Cancer), 10^−4 molar
Method: as §1

SNB-19 = test: NCI screen, growth of human tumor cells: CNS Cancer SNB-19; details: SNB-19 (CNS Cancer), 10^−4 molar
Method: as §1

COLO205 = test: NCI screen, growth of human tumor cells: Colon Cancer COLO205; details: COLO205 (Colon Cancer), 10^−4 molar
Method: as §1

NCI-H226 = test: NCI screen, growth of human tumor cells: Non-Small Cell Lung NCI-H226; details: NCI-H226 (Non-Small Cell Lung), 10^−4 molar
Method: as §1

Structure (SMILES)	percent of growth of human tumor cells (OVCAR-8) [%]	percent of growth of human tumor cells (UO-31) [%]	percent of growth of human tumor cells (HOP-92) [%]	percent of growth of human tumor cells (MDA-MB-231/ATCC) [%]	percent of growth of human tumor cells (SR) [%]	percent of growth of human tumor cells (MCF 7) [%]	percent of growth of human tumor cells (MCF7/ADR-RES) [%]	percent of growth of human tumor cells (SW620) [%]	percent of growth of human tumor cells (SK-MEL-28) [%]	percent of growth of human tumor cells (NCI-H23) [%]	percent of growth of human tumor cells (HS 578T) [%]	percent of growth of human tumor cells (K562) [%]	percent of growth of human tumor cells (SN12C) [%]	percent of growth of human tumor cells (DU-145) [%]	percent of growth of human tumor cells (BT-549) [%]	percent of growth of human tumor cells (HOP-62) [%]	percent of growth of human tumor cells (NCI-H460) [%]	Percentage of cancers showing negative growth cancers tested (human cancer cells)	percent of growth of human tumor cells (RPMI-8226) [%]	percent of growth of human tumor cells (SF-539) [%]	other results
O=C1C(Cl)=C(C2S(=O)(=O)OCCOS2(=O)=O)C(=O)c2ccccc21 [NSC 731260, ethylene 3-chloro-1,4-naphtho-2-quinoylmethanedisulfonate]	18	30	−3	−15	15	6	25	1	−5	−54	8	20	−12	12	−32	−56	4	10^−4 M conc. = 16/37 = 43%	−36	1	percent of growth of human tumor cells (LOXIMVI): −43%; percent of growth of human tumor cells (HL-60 (TB)): 13%; % Growth (UACC-257; UACC-257, 10^−4 molar): −74%; percent of growth of human tumor cells (CAKI-1): 18%; percent of growth of human tumor cells (HCT-15; HCT-15 (Colon Cancer), 10^−4 molar): 17%; percent of growth of human tumor cells (ACHN): −12%; percent of growth of human tumor cells (OVCAR-3): 28%; percent of growth of human tumor cells (OVCAR-4): 11%; percent of growth of human tumor cells (SK-MEL-5): −54%; percent of growth of human tumor cells (M14): −58%; percent of growth of human tumor cells (U-251; U-251 (CNS Cancer), 10^−4 molar): 2%; % Growth (MDA-MB-435): −79%; % Growth (UACC-62; UACC-62, 10^−4 molar): −86%; percent of growth of human tumor cells (SF-268): 10%; % Growth (HCT-116): −89%; percent of growth of human tumor cells (PC-3): 9%; percent of growth of human tumor cells (SF-295): −46%; percent of growth of human tumor cells (RXF-393): 28%
CC=CC(=O)C1(Cc2ccc3c(c2)C(=O)c2ccccc2C3=O)S(=O)(=O)OCCOS1(=O)=O [NSC 731263]	−39	1	−16	−33	24	−17	11	−38	−23	31	−18	12	−53	1	−20	−38	2	10^−4 M conc. = 18/36 = 50%	−7	−23	percent of growth of human tumor cells (CCRF-CEM): 15%; percent of growth of human tumor cells (UACC-257; UACC-257 (Melanoma), 10^−4 molar): −20%; percent of growth of human tumor cells (OVCAR-5): 20%; % Growth (HCT-15; HCT-15, 10^−4 molar): −65%; percent of growth of human tumor cells (KM12): 2%; percent of growth of human tumor cells (786-0): 1%; percent of growth of human tumor cells (IGROVI): 3%; percent of growth of human tumor cells (HT29): 1%; percent of growth of human tumor cells (SNB-19): 10%; percent of growth of human tumor cells (COLO205): 5%; % Growth (U-251; U251, 10^−4 molar): −85%; percent of growth of human tumor cells (NCI-H226): 10%; percent of growth of human tumor cells (UACC-62; UACC-62 (Melanoma), 10^−4 molar): 16%; percent of growth of human tumor cells (SF-268): −24%; % Growth (HCT-116): −100%; percent of growth of human tumor cells (PC-3): 11%; percent of growth of human tumor cells (RXF-393): −45%
